The source of these data is US20050038112A1, “Simplified sarcondictyn derivatives as anti-tumor agents” (priority 2001, published 2005).

Read-outs that look alike come from different tables or passages of the source.

The test system of experiment [1] is A2780 cells. Nature of the experiment: Cytotoxicity (SRB colorimetric assay) on A2780 cells. The experiment is classed as cell-based. Particulars: 72 h incubation, concentration inhibiting cell proliferation by 50%. The method, then:
(§1) A2780 cells (2000/well) were seeded in multiwell plates (96 wells) in the presence of 200 μl of the complete medium RPMI 1640+10% FCS. After 24 h, the cells were treated with the compounds: the compounds' solution (200×) was prepared in DMSO 100% and 1 μl/well was added. 5 scalar concentrations for each compound were tested in four replicates. The cells were incubated at 37° C., 5% CO2 for 72 h.
(§2) Colorimetric assay (SRB: sulforhodamine B): cell cultures were fixed with trichloroacetic acid, stained with 0.4% SRB dissolved in 1% acetic acid. Unbound dye was removed by four washes with 1% acetic acid and protein-bound dye was extracted with 10 mM Tris base for determination of optical density in a 96-well microtiter plate reader. IC50 and IC90 (concentration inhibiting cell proliferation by 50 or 90%) were determined by data analysis in the Microsoft Excel 97 program.

In experiment [2] the test system is Human colon carcinoma HCT116 cells. As to the kind of experiment: Cytotoxicity on HCT116 tumor cell line. The class given is cell-based.
In experiment [3] the test system is Human colon carcinoma HT29 cells. Nature of the experiment: Cytotoxicity on HT29 tumor cell line. The class given is cell-based. The method, then:
as §1, §2
Human colon carcinoma HT29 cells were also used to study the cytotoxicity of the compounds of the present invention.

For experiment [4], the target named is T1, Pig brain tubulin (Sus scrofa, UniProt P02554).
T1 construct: Pig brain tubulin was prepared by two cycles of assembly and disassembly; from tissue; host or cells: pig brain
As to the kind of experiment: Microtubule assembly and disassembly assay (tubulin polymerizing activity). The experiment is classed as biochemical. Particulars: 0.5 mg/ml tubulin, 37° C., turbidity at 340 nm; for EC50: effective dose that induces 50% tubulin polymerisation, read-out: ED50 (the source's name); for ED90: effective dose that induces 90% tubulin polymerisation. As to the method: Pig brain tubulin was prepared by two cycles of assembly and disassembly and it was stored in liquid nitrogen in Microtubule Assembly Buffer (MAB: 0.1 M MES, 2.5 mM EGTA, 0.5 mM MgSO4, 0.1 mM EDTA, 0.1 mM DTT pH 6.4). Assembly was monitored by the method of Gaskin et al. (Gaskin F, Cantor C R, Shelanski M L, 1974,: Turbidimetric studies of the in vitro assembly and disassembly of porcine neurotubules. J. Mol. Biol. 89: 737-758). The cuvette (1 cm path) containing 0.5 mg/ml tubulin and 1 mM GTP was shifted to 37° C. and continuous turbidity measurements were made at 340 nm on a spectrophotometer equipped with an automatic recorder and a thermostatically regulated sample chamber. After 30 min CaCl2 (5 mM) was added and disassembly was monitored for 10 mm as decreased turbidity. Scalar doses of test compounds were monitored at regular intervals of 15 min.
(ED50 and ED90) was calculated on this curve.

T1 sequence (P02554 whole entry): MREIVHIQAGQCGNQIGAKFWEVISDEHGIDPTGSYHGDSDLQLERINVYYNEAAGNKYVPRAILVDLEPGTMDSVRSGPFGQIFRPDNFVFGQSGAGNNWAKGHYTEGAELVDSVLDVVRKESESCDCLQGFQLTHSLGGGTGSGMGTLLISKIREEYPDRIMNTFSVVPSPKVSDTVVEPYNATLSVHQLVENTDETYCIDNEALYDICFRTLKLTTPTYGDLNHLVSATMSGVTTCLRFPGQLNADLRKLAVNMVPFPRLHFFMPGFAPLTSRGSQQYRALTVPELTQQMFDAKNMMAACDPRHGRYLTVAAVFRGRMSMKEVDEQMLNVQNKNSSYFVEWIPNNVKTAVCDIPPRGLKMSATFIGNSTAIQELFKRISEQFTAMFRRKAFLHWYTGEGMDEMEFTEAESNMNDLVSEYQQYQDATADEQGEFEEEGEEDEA
T1 sequence (P02550 whole entry partner): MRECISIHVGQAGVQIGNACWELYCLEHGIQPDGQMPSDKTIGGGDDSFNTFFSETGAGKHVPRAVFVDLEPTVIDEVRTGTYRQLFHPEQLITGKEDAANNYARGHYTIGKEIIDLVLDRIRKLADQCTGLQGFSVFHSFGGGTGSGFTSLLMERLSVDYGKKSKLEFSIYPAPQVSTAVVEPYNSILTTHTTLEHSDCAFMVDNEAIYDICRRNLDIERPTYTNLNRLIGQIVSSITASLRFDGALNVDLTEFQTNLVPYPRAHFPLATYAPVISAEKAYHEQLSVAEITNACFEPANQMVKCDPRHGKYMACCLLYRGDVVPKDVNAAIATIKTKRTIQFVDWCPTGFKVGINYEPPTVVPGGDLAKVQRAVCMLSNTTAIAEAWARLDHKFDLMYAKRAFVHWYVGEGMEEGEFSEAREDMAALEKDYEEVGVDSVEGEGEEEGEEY

Regarding `CC1=CC[C@H](C(C)C)[C@H]2C[C@H](OC(=O)C(C)(C)C)[C@@H](O)C=CC[C@@H](OC(=O)C=Cc3cn(C)cn3)C[C@@H]12` [Example 34, 3-(1-Methyl-1H-imidazol-4-yl)-acrylic acid [(1R,4aR,6R,10S,10S,12aR)-11-(2,2-dimethyl-propionyloxy)-10-hydroxy-1-isopropyl-4-methyl-1,2,4a,5,6,7,10,11,12,12a-decahydro-benzocyclodecen-6-yl}ester], the values for the IC50 in experiment [1], in experiment [2] and in experiment [3] were 4 µM, 4 µM and 5 µM, respectively. Moreover, the EC50 in experiment [4] is 1 µM. In addition, the “ED90” value in experiment [4] worked out at 1.8 µM.
Consider `CO[C@H]1C=CC[C@@H](OC(=O)/C=C/c2cn(C)cn2)C[C@H]2C(C)=CC[C@H](C(C)C)[C@H]2C[C@@H]1OC(=O)C(C)(C)C` [Example 27, (E)-3-(1-Methyl-1H-imidazol-4-yl)-acrylic acid [(1R,4aR,6R,10S,11S,12aR)-11-(2,2-dimethyl-propionyloxy)-1-isopropyl-10-methoxy-4-methyl-1,2,4a,5,6,7,10,11,12,12a-decahydro-benzocyclodecen-6-yl}ester], for which the half-maximal inhibitory concentration (IC50) is less than 5 µM in experiment [1] (Homo sapiens); 10 to 25 µM in experiment [2] (Homo sapiens, HCT-116); 7 µM in experiment [3] (Homo sapiens, HT-29). Besides, the EC50 in experiment [4] came out at 3 µM.
Compound `CC(=O)O[C@@H]1C/C=C\C[C@@H](OC(=O)/C=C/c2cn(C)cn2)C[C@H]2C(C)=CC[C@H](C(C)C)[C@H]2C1` [Example 12, 3-(1-Methyl-1H-imidazol-4-yl)-acrylic acid 11-acetoxy-1-isopropyl-4-methyl-1,2,4a,5,6,7,10,11,12,12a-decahydro-benzocyclodecen-6-yl ester] showed an IC50 in experiment [1] (Homo sapiens) of 4 µM. The IC50 in experiment [2] (Homo sapiens, HCT-116) stood at 12 µM. Further, in experiment [4], the EC50 worked out at 2 µM and the “ED90” value was 10.0 µM.
Consider `C=C1C/C=C\C[C@@H](OC(=O)/C=C/c2cn(C)cn2)C[C@H]2C(C)=CC[C@H](C(C)C)[C@H]2C1` [Example 19], for which the half-maximal inhibitory concentration (IC50) in experiment [1] (Homo sapiens) was 4 µM; in experiment [2] (Homo sapiens, HCT-116), 5 µM; in experiment [3] (Homo sapiens, HT-29), 6 µM. Further, the EC50 in experiment [4] was 5 µM. In experiment [4], the “ED90” value was 16.0 µM.
`CC(=O)O[C@H]1C=CC[C@@H](OC(=O)/C=C/c2cn(C)cn2)C[C@H]2C(C)=CC[C@H](C(C)C)[C@H]2C[C@@H]1OC(=O)C(C)(C)C` [Example 30, (E)-3-(1-Methyl-1H-imidazol-4-yl)-acrylic acid [(1R,4aR,6R,10S,11S,12aR)-10-acetoxy-11-(2,2-dimethyl-propionyloxy)-1-isopropyl-4-methyl-1,2,4a5,6,7,10,11,12,12a-decahydro-benzocyclodecen-6-yl]ester]: in experiment [4], the EC50 turned out to be 1 µM and the “ED90” value was 1.7 µM.
For `CC1=CC[C@H](C(C)C)[C@H]2CC(=O)C/C=C\C[C@@H](OC(=O)/C=C/c3cn(C)cn3)C[C@@H]12` [Example 16, (E)-3-(1-Methyl-1H-imidazol-4-yl)-acrylic acid [(1R,4aR,6R,12aR)-1-isopropyl-4-methyl-11-oxo-1,2,4a,5,6,7,10,11,12,12a-decahydro-benzocyclodecen-6-enyl]ester], the IC50 in experiment [1] (Homo sapiens) was 40 µM; in experiment [2] (Homo sapiens, HCT-116) it was 35 to 60 µM; in experiment [3] (Homo sapiens, HT-29), 30 µM. Besides, the EC50 in experiment [4] turned out to be 0.2 µM. Also, the “ED90” value in experiment [4] is 1.2 µM.

The term IC50 denotes the concentration needed to halve the response being measured. Low values mean inhibition by little substance, high ones a need for much substance.
